In the supplement of paper PMC12317010:
Where a name gives a salt, the structure may show the parent alone.

Assay: collision cross section in nitrogen (drift tube, single-field); higher = larger gas-phase ion size
[1] = ion type: [M+Na], ion source: ESI, ion mode: Positive
[2] = ion type: [M-H], ion source: ESI, ion mode: Negative
[3] = ion type: [M+H], ion source: APCI, ion mode: Positive
[4] = ion type: [M+H], ion source: ESI, ion mode: Positive
[5] = ion source: APCI, ion mode: Positive, ion type: [M]+ (permanent cation)
[6] = ion source: ESI, ion mode: Positive, ion type: [M]+ (permanent cation)
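Note: chemical standards at 10 µM analysed by drift tube IMS-QTOF MS in about 3.95 torr nitrogen, mean of duplicate injections differing ≤1%, mass error below 10 ppm.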

collision cross section in nitrogen [1] [Å²] | collision cross section in nitrogen [2] [Å²] | collision cross section in nitrogen [3] [Å²] | collision cross section in nitrogen [4] [Å²] | SMILES | other results
232.5 | 245.2 | – | – | COc1ccc([C@@H]2CC(=O)c3c(O)cc(O[C@@H]4O[C@H](CO[C@@H]5O[C@@H](C)[C@H](O)[C@@H](O)[C@H]5O)[C@@H](O)[C@H](O)[C@H]4O)cc3O2)cc1OC [Methyl hesperidin] | –
– | 173.6 | – | – | CCCCCCCCCCCCCCCC(=O)OC [Methyl hexadecanoate] | –
– | – | 126.6 | – | COC(=O)c1cccnc1 [Methyl nicotinate] | –
– | 146.7 | – | – | CCCCCCCC(=O)OC [Methyl octanoate] | –
179.2 | 175.2 | 163.1 | 163 | CN(C)c1ccc(/N=N/c2ccccc2C(=O)O)cc1 [Methyl red] | –
– | – | – | 149.6 | C[C@](N)(Cc1ccc(O)c(O)c1)C(=O)O [Methyldopa sesquihydrate] | –
– | 155.8 | – | – | CCC(=O)/C=C/C1C(C)=CCCC1(C)C (stereo not given) [Methylionone] | –
– | – | – | – | CCCCCCCC[N+](C)(CCCCCCCC)CCCCCCCC [Methyltrioctylammonium chloride] | collision cross section in nitrogen [5]: 222.2 Å²; collision cross section in nitrogen [6]: 221.8 Å²
177.4 | 173.9 | – | – | CCc1cccc(C)c1N(C(=O)CS(=O)(=O)O)C(C)COC (stereo not given) [Metolachlor ESA] | –
– | 165.9 | – | – | CCc1cccc(C)c1N(C(=O)C(=O)O)C(C)COC (stereo not given) [Metolachlor OA] | –
164 | – | 171.7 | 172.1 | COCCc1ccc(OCC(O)CNC(C)C)cc1 (stereo not given) [Metoprolol] | –
161.3 | 144.8 | 144.2 | 145.2 | CSc1nnc(C(C)(C)C)c(=O)[nH]1 [Metribuzin-DA] | –
– | – | 133.8 | 134.3 | Cc1ncc([N+](=O)[O-])n1CCO [Metronidazole] | –
– | – | – | 156.2 | CC(C)(C(=O)c1cccnc1)c1cccnc1 [Metyrapone] | –
164.3 | 159.5 | – | – | COc1ccc(OC)c(C(O)CNC(=O)CN)c1 (stereo not given) [Midodrine hydrochloride] | –
246.2 | 221.9 | – | 221.9 | CC#C[C@]1(O)CC[C@H]2[C@@H]3CCC4=CC(=O)CCC4=C3[C@@H](c3ccc(N(C)C)cc3)C[C@@]21C [Mifepristone] | –
– | 147.4 | 157.1 | 156.3 | Cc1[nH]c(=O)c(C#N)cc1-c1ccncc1 [Milrinone] | –
209.6 | 204.5 | 204.1 | 203.7 | CN(c1nccc(=O)[nH]1)C1CCN(c2nc3ccccc3n2Cc2ccc(F)cc2)CC1 [Mizolastine] | –
157.4 | 160.8 | – | – | O=C(O)c1ccccc1C(=O)OCc1ccccc1 [Monobenzyl phthalate] | –
171.7 | 159.9 | – | – | O=C(O)c1ccccc1C(=O)OC1CCCCC1 [Monocyclohexyl phthalate] | –
– | 142 | – | – | CCOC(=O)c1ccccc1C(=O)O [Monoethyl phthalate] | –
– | 127.6 | – | – | O=C(O)c1ccccc1C(=O)O [Monopotassium phthalate] | –
– | 132.5 | – | – | O=C(O)c1ccc(Cl)cc1C(=O)O [Monosodium hydrogen 4-chlorophthalate] | –
– | 169.9 | – | – | CCCCCCCCCCCCCOP(=O)(O)O [Monotridecyl phosphate] | –

collision cross section in nitrogen [1] [Å²] | collision cross section in nitrogen [2] [Å²] | collision cross section in nitrogen [3] [Å²] | collision cross section in nitrogen [4] [Å²] | SMILES | other results
– | 164.1 | – | – | O=c1c(O)c(-c2ccc(O)cc2O)oc2cc(O)cc(O)c12 [Morin hydrate] | –
– | – | – | – | CCCCCCCCCCCCCC[N+](C)(C)C [Myristyltrimethylammonium chloride] | collision cross section in nitrogen [5]: 185.2 Å²; collision cross section in nitrogen [6]: 185.7 Å²
– | 155 | 157.9 | – | O=C1C=CC(=O)N1c1cccc(N2C(=O)C=CC2=O)c1 [N,N'-1,3-Phenylenedimaleimide] | –
– | 203.8 | 201.9 | – | c1ccc2cc(Nc3ccc(Nc4ccc5ccccc5c4)cc3)ccc2c1 [N,N'-Di-2-naphthyl-p-phenylenediamine] | –
– | 148.4 | 148.6 | 148.8 | CCCCNC(=S)NCCCC [N,N'-Dibutylthiourea] | –
164.2 | – | 146.3 | 146 | CCCCNC(=O)NCCCC [N,N'-Dibutylurea] | –
– | 165.7 | 163 | 162.9 | S=C(NC1CCCCC1)NC1CCCCC1 [N,N'-Dicyclohexylthiourea] | –
128.2 | – | – | – | Cc1ccc(N(C)C)cc1 [N,N,4-Trimethylaniline] | –
– | – | – | 193.6 | CCCCN(CCCC)CCCCCCN(CCCC)CCCC [N,N,N',N'-Tetrabutyl-1,6-hexanediamine] | –
– | – | – | – | CCCCCCCCCCCCCCCCCC[N+](C)(C)C [N,N,N-Trimethyloctadecan-1-aminium chloride] | collision cross section in nitrogen [5]: 200.2 Å²; collision cross section in nitrogen [6]: 200.7 Å²
– | – | – | – | CCCC[N+](C)(CCCC)CCCC [N,N-Dibutyl-N-methylbutan-1-aminium chloride] | collision cross section in nitrogen [5]: 153.8 Å²; collision cross section in nitrogen [6]: 154.5 Å²
193.7 | – | 186.2 | 185.8 | c1ccc2sc(SN(C3CCCCC3)C3CCCCC3)nc2c1 [N,N-Dicyclohexyl-2-benzothiazolesulfenamide] | –
179.4 | – | 179.7 | 179.1 | CCCCCCCCCCCC(=O)N(CC)CC [N,N-Diethyldodecanamide] | –
166.7 | – | – | 164.1 | CCCCCCCCCC[N+](C)(C)[O-] [N,N-Dimethyldecylamine oxide] | –
170.8 | – | 175.3 | 174.4 | CCCCCCCCCCCC[N+](C)(C)[O-] [N,N-Dimethyldodecylamine-N-oxide] | –
– | – | 146.6 | 146.8 | CCCCCCCC(=O)N(C)C [N,N-Dimethyloctanamide] | –
– | – | 120.6 | 120.5 | CN(C)c1ccncc1 [N,N-dimethylpyridin-4-amine] | –
151.1 | – | – | – | CCC(CC)Nc1ccc(C)c(C)c1 [N-(1-Ethylpropyl)-3,4-xylidine] | –
190 | – | – | – | CCCCCCC(C)Nc1ccc(Nc2ccccc2)cc1 (stereo not given) [N-(1-Methylheptyl)-N'-phenyl-1,4-benzenediamine] | –
160.6 | 148.8 | 147.7 | – | CC(=O)CC(=O)Nc1ccc(C)cc1C [N-(2,4-Dimethylphenyl)-3-oxobutanamide] | –
– | – | – | 136.2 | CC(=O)Nc1ccc(C)cc1C [N-(2,4-Dimethylphenyl)acetamide] | –
– | 133.8 | – | – | Cc1ccc(NC=O)c(C)c1 [N-(2,4-Dimethylphenyl)formamide] | –
159.2 | 154.4 | – | – | COc1ccc(OC)c(NC(=O)CC(C)=O)c1 [N-(2,5-Dimethoxyphenyl)-3-oxobutanamide] | –

SMILES | collision cross section in nitrogen [1] [Å²] | collision cross section in nitrogen [2] [Å²] | collision cross section in nitrogen [3] [Å²] | collision cross section in nitrogen [4] [Å²] | other results
COC(=O)Cc1ccccc1 [Methyl phenylacetate] | – | 131.4 | – | – | –
CCc1cccc(C)c1N(C(=O)CCl)C(C)COC (stereo not given) [Metolachlor] | 172.6 | – | 158.9 | 159.8 | –
CSc1nnc(C(C)(C)C)c(=O)n1N [Metribuzin] | – | 148.3 | 146.7 | 148.4 | –
CCCCC(CC)COC(=O)c1ccccc1C(=O)O (stereo not given) [Mono(2-ethylhexyl) phthalate] | 182.1 | 169.2 | – | – | –
O=C(O)CCCOC(=O)c1ccccc1C(=O)O [Mono(3-carboxypropyl)phthalate] | 156.3 | – | – | – | –
CCCCOC(=O)c1ccccc1C(=O)O [Monobutyl phthalate] | – | 151.7 | – | – | –
C[C@H]1C(=O)O[C@@H]2CCN3CC=C(COC(=O)[C@](C)(O)[C@]1(C)O)[C@H]23 [Monocrotaline] | 178.6 | – | 175.4 | 175.3 | –
CN(C)C(=O)Nc1ccc(Cl)cc1 [Monuron] | – | 142.4 | 142.7 | 143 | –
CCCCC(C#N)(Cn1cncn1)c1ccc(Cl)cc1 (stereo not given) [Myclobutanil] | – | – | – | 174.7 | –
C=CC(=O)NCNC(=O)C=C [N,N'-Methylenebisacrylamide] | 138.1 | – | – | – | –
CCN(CC)c1ccccc1 [N,N-Diethylaniline] | 132.8 | – | – | – | –
CN(C)c1ccc(N=O)cc1 [N,N-Dimethyl-4-nitrosoaniline] | – | – | 128.7 | 128.4 | –
CN(C)c1ccccc1 [N,N-Dimethylaniline] | 123.8 | – | – | – | –
